By bioavailability is commonly meant the share of a dose that reaches the circulation, judged against a reference dose that is usually intravenous. As usually defined, the solubility is how much of the substance goes into solution per volume.

The record followed here is patent US8017727B2, “Conjugates of membrane translocating agents and pharmaceutically active agents” (Merrion Research III Limited, priority 1999, dated 2011).

In brackets after ≈: the same amount, converted by molar mass. Like-named read-outs stand apart in the source and are kept apart here. Non-standard residues stand in square brackets, D forms with d. Residues, ends and D or L forms follow the SMILES beside them.

One data set deals with Caco-2 cells. Kind of data set: Delivery of DNA from MTLP coated liposomes into Caco-2 cells (β-galactosidase expression). Particulars: versus lipofectamine+DNA and lipofectamine+DNA+protamine control liposomes. It counts as cell-based, human. Here is the method:
DNA delivery into Caco-2 cells from liposomes and from MTLP coated liposomes was calculated as β-galactosidase expression per mg of total protein in the cell supernatant. β-galactosidase expression was determined using the Boehringer Mannheim chemiluminescence kit. Protein was determined using the Pierce Micro bichinconate (BCA) protein assay.
Caco-2 cells were plated at 1×10^5 cells/well in 1 ml of culture media and incubated at 37° C. in 5% CO2 overnight. The cells were washed twice in 0.5 ml of optiMEM. ZElan094, 204N or 204 (SEQ ID NOS: 2, 23, 24) (Solution 4, Example 9) were each added to triplicate wells (250 μl/well) of the washed cells and incubated for 4 h at 37° C. After 4 h, 250 μl of optiMEM containing 2× fetal calf serum was added and the cells were incubated for an additional 20 h at 37° C. At 24 h post-transfection, the cells were lysed with Boehringer Mannheim Lysis Buffer. The lysate was centrifuged for 2 min at 14,000 rpm in an Eppendorf Centrifiguge and the supernatant was collected.

Data set [1] can be described thus: Systemic 3H bioavailability of kappa peptide conjugates, conscious rat model (plasma). It counts as in vivo, Wistar rats. The settings on record: intraduodenal (ID), 100 μCi; for bioavailability: rat, plasma, potency corrected, read-out: Absolute 3H bioavailability. Here is the method: The possible enhancing effects of ELAN094 and ELAN207 MTLPs (SEQ ID NOs 2 and 60) on intestinal absorption of the kappa peptide were examined in a conscious rat model.
The study was non-randomised, parallel group design. Wistar rats within the 250-350 g weight range were used. All animals were fasted for a period of 16 h prior to study initiation. Water was available at all times.
Intravenous injection of 10 μCi of ^3H-kappa peptide-Kaffiralin-1 (plain kappa peptide) (tail vein injection).
Intraduodenal instillation of 100 μCi of ^3H-kappa peptide-Elan094 (Analysed). The Elan094 ligand contains a membrane translocating sequence.
Intraduodenal instillation of 100 μCi of ^3H-kappa peptide-Elan207 (Analysed). The Elan207 ligand contains a membrane translocating sequence.
Intraduodenal instillation of 100 μCi of ^3H-kappa peptide-Kaffiralin-1.
The plasma (100-250 μl) was made up to 1 ml with BTS-450 (an organic tissue solubiliser) and incubated for 1 hour. Ten ml of Scintillation fluid was added and the radioactivity was measured.
The study was a non-randomised, parallel group biostudy designed to evaluate the systemic bioavailability of tritium labelled kappa peptide conjugates after intra-duodenal instillation in the conscious rat model. Each rat only received one treatment and the plasma samples were analysed for tritium content. The calculation of AUClast, Amax, tmax, Volume of Distribution (V d) and Clearance was based on base line corrected data. The absolute bioavailability was calculated using potency corrected data.

The nature of data set [2]: 3H tissue distribution of kappa peptide conjugates, conscious rat model. Type of data set: in vivo, Wistar rats. Particulars: ID, 100 μCi, potency corrected. Here is the method: The tissue was weighed and a representative sample, (ca 0.1 g), was removed to a scintillation vial. The tissue was solubilzed with 1 ml of BTS-450 (an organic tissue solubliser). Ten ml of scintillation fluid was added and the radioactivity was measured. The radioactivity was expressed as dpm/initial weight of tissue.

For the next data set, the system named is Caco-2 cell monolayers. Kind of data set: Permeability of tritiated kappa peptide conjugates through differentiated Caco-2 cell monolayers. Type of data set: in vitro ADME, human. Particulars: n=5. Here is the method:
Highest transport values were obtained in the first 30 min followed by a 2-4 fold decrease at 60 min. The significance of these findings is unclear. The data may be indicative of dual binding/uptake events occurring through i) a kappa receptor specific mechanism and ii) direct membrane interaction through lipid interaction of the membrane permeable peptide.

Data set [3] concerns Caco-2 monolayers. Kind of data set: Transport of reporter molecule 3H-fMLP across Caco-2 monolayers. Type of data set: cell-based, human. Particulars: for % inhibition 3H-fMLP transport: flux measured over 2 h. Here is the method:
The effect of the MTLPs ZElan094, ZElan178 and ZElan187 (SEQ ID NOS: 2, 7 and 16) and of the targeting peptide ZElan022 (U.S. patent application Ser. Nos. 09/079,819, 09/079,723 AND 09/079,678, AND PCT A[…]/US98/10088, PUBLISHED AS WO 98/51325) on the transport of the dipeptide ^14C-gly-sar and of the reporter molecule ^3H-fMLP across Caco-2 monolayers was determined. The Caco-2 monolayers were grown on Transwell-Snapwells. Cell viability was determined by measuring TEER of the Caco-2 monolayers during each experiment. No significant drop in TEER was measured. Cell permeability was determined by measuring mannitol flux across the Caco-2 monolayers during each experiment. No increase in mannitol flux was measured in the presence of the MTLP ZElan094.
The flux of the dipeptide ^14C-gly-sar and of the reporter molecule ^3H-fMLP across the Caco-2 monolayers in the absence and in the presence of the MTLPs ZElan094, ZElan178 and ZElan187 (SEQ ID NOS: 2, 7 and 16) and of the targeting peptide ZElan022 (U.S. patent application Ser. Nos. 09/079,819, 09/079,723 AND 09/079,678), AND PCT A[…]/US98/10088, PUBLISHED AS WO 98/51325 was measured over 2 h, and reduction in the permeability coefficient was determined in the presence of cold substrates.
Caco-2 monolayers were grown and tested for viability as in Example 11. Transport of ^3H-fMLP across Caco-2 monolyers was measured in the presence from 0 to 200 μg/ml of the MTLP ZElan094.

The nature of data set [4]: Solubility of ZElan094 (physical characteristics). It counts as physicochemical. Particulars: water.
Data set [5] deals with Caco-2 monolayers. Nature of the data set: Transport of dipeptide 14C-gly-sar across Caco-2 monolayers. It counts as cell-based, human. The arrangement: key to % inhibition 14C-gly-sar transport: NS: no significant difference between experimental (+MTLP) and control cells (−MTLP) in the transport of radiolabeled drug. Particulars: flux measured over 2 h. Here is the method: The effect of the MTLPs ZElan094, ZElan178 and ZElan187 (SEQ ID NOS: 2, 7 and 16) and of the targeting peptide ZElan022 (U.S. patent application Ser. Nos. 09/079,819, 09/079,723 AND 09/079,678, AND PCT APPLICATION PCT/US98/10088, PUBLISHED AS WO 98/51325) on the transport of the dipeptide ^14C-gly-sar and of the reporter molecule ^3H-fMLP across Caco-2 monolayers was determined. The Caco-2 monolayers were grown on Transwell-Snapwells. Cell viability was determined by measuring TEER of the Caco-2 monolayers during each experiment. No significant drop in TEER was measured. Cell permeability was determined by measuring mannitol flux across the Caco-2 monolayers during each experiment. No increase in mannitol flux was measured in the presence of the MTLP ZElan094.
The flux of the dipeptide ^14C-gly-sar and of the reporter molecule ^3H-fMLP across the Caco-2 monolayers in the absence and in the presence of the MTLPs ZElan094, ZElan178 and ZElan187 (SEQ ID NOS: 2, 7 and 16) and of the targeting peptide ZElan022 (U.S. patent application Ser. Nos. 09/079,819, 09/079,723 AND 09/079,678), AND PCT APPLICATION PCT/US98/10088, PUBLISHED AS WO 98/51325 was measured over 2 h, and reduction in the permeability coefficient was determined in the presence of cold substrates.
Background: Passage across Caco-2 layers is used to estimate intestinal permeability.

In the case of “H-K(ε-dansyl)AAVLLPVLLAAKKKRKA-NH2 ({K(dansyl)}-AAVLLPVLLAAKKKRKA-NH2) [ZElan204N]”, the “DNA delivery into and expression within Caco-2 cells” value in the data set on Caco-2 cells is listed as “most effective”.
With `CC[C@@H](C)[C@@H](NC(=O)[C@@H](Cc1ccccc1)NC(=O)[C@@H](Cc1ccccc1)NC(=O)[C@@H](CCCCN)NC(=O)[C@H]1CCCN1C(=O)[C@@H](C)NC(=O)[C@@H](C)NC(=O)[C@@H](CC(C)C)NC(=O)[C@@H](CC(C)C)NC(=O)[C@H](NC(=O)[C@H]1CCCN1C(=O)[C@@H](CC(C)C)NC(=O)[C@@H](CC(C)C)NC(=O)[C@H](NC(=O)[C@@H](C)NC(=O)[C@@H](C)NC(=O)[C@@H](C)NC(=O)[C@@H](CCCCN)NC(=O)[C@H](N)CCCCN)C(C)C)C(C)C)C(=O)N[C@H](CCCNC(=N)N)C(N)=O` [3H-Kappa peptide-Elan 207] (H-[dK][dK][dA][dA][dA][dV][dL][dL][dP][dV][dL][dL][dA][dA][dP][dK][dF][dF][dI][dR]-NH2; N-terminus and C-terminus assumed), in data set [1] ((Repeat) group), the “3H AUClast” value came to 249021.32±37503.78 dpm/ml·h, the “3H Amax (maximum radioactivity)” value was 201464.40±44854.19 dpm/ml, the “fold increase in absolute 3H bioavailability versus kappa peptide without ligand” value was “approx. 2 fold” and the bioavailability turned out to be 16.6 ± 2.5%. Further, in data set [1] (Elan207 = original group), the “3H AUClast” value was 162743.70±13549.10 dpm/ml·h, the “3H Amax (maximum radioactivity)” value is reported as 100041.17±6274.57 dpm/ml and the bioavailability is 11.5 ± 0.96%. In data set [1] (listed as Elan207 MTLP), the “fold increase in absolute 3H bioavailability versus kappa peptide without ligand” value was > 1.5 fold. In data set [2], the “Catheter, % of administered dose” value was 0.14 ± 0.09%; the “GI Tissue, % of administered dose” value is recorded as 4.08 ± 2.47%; the “GI Washing, % of administered dose” value came out at 9.60 ± 16.65%; the “GI contents, % of administered dose” value stood at 26.34 ± 17.00%. Moreover, in data set [2], the “Liver, % of administered dose” value worked out at 0.47 ± 0.20% and the “Total GI (% recovery from GI tissue, GI contents & GI wash)” value worked out at 40.03 ± 23.23%. In addition, in data set [2] (t=6 h), the “Kidney, % of administered dose” value is listed as 0.17 ± 0.07%; the “Plasma, % of administered dose” value came to 0.10 ± 0.01%; the “Total Recovery, % of administered dose” value is 40.91 ± 23.32%. Further, the “Plasma, % of administered dose” value in data set [2] (t=6 h, listed as 3H-Kappa peptide Elan207) is 0.10±0.01%. Besides, in the data set with Caco-2 cell monolayers, the “permeability compared to the kappa peptide control” value is given as “No significant increase”.
As to `CC(C)C[C@H](NC(=O)[C@H](CC(C)C)NC(=O)[C@@H](NC(=O)[C@@H]1CCCN1C(=O)[C@H](CC(C)C)NC(=O)[C@H](CC(C)C)NC(=O)[C@@H](NC(=O)[C@H](C)NC(=O)[C@H](C)NC(=O)[C@H](C)NC(=O)[C@H](CCCCN)NC(=O)[C@H](CCCCN)NC(=O)[C@@H](N)CCCCNS(=O)(=O)c1cccc2c(N(C)C)cccc12)C(C)C)C(C)C)C(=O)N[C@@H](C)C(=O)N[C@@H](C)C(=O)N1CCC[C@H]1C(N)=O` [ZElan094], the “% inhibition 3H-fMLP transport” value in the data set on Caco-2 monolayers [3] (listed as 094) is on record as 77.2%; with Caco-2 monolayers [3] (listed as ZElan 094), “inhibited transport”. Further, the “inhibition of 3H-fMLP transport” value in the data set with Caco-2 monolayers [3] (range 0 to 200 μg/ml) was “inhibited”. In data set [4], this molecule gave a solubility of 1000 µg/mL (≈ 545 µM). The “% inhibition 14C-gly-sar transport” value in the data set on Caco-2 monolayers [5] is reported as “NS”. Besides, the “inhibition of 14C-gly-sar transport” value with Caco-2 monolayers [5] was “did not inhibit transport”.
